Some test systems named below: IGROV1 ovarian; NCI-H23 lung; HL-60(TB) leukemia; NCI-H522 lung; OVCAR-8 ovarian; MCF7 breast; UACC-257 melanoma; BT-549 breast; K-562 leukemia; KM12 colon; TK-10 renal; UO-31 renal; NCI-H460 lung; MOLT-4 leukemia.
Holding throughout (assay): NCI tumour cell line growth inhibition, 48 h

Molecules are shown by their SMILES.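 Cells were grown in 96-well plates and exposed to each compound for 48 hours at five concentrations; endpoints were interpolated linearly between bracketing concentrations, or set to the highest concentration if not reached. TGI is the concentration that stops growth completely.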

Turning to `C/C(Nc1ccc(Cl)cc1)=C1/CCOC1=O`, the TGI in the assay on IGROV1 ovarian, in the assay with NCI-H23 lung, in the assay on HL-60(TB) leukemia, in the assay with NCI-H522 lung, in the assay with OVCAR-8 ovarian and in the assay on MCF7 breast was above 100 µM in each case. The TGI with UACC-257 melanoma, with BT-549 breast, in the assay with K-562 leukemia, with KM12 colon, with TK-10 renal and in the assay on UO-31 renal was above 100 µM in each case. For the same compound, the figures for the TGI in the assay on NCI-H460 lung and in the assay with MOLT-4 leukemia were above 100 µM and above 76.5 µM, respectively.
For the compound `O=C(NCc1ccccc1Cl)c1c(O)c2ccccc2[nH]c1=O`, the TGI is 67.2 µM with IGROV1 ovarian; above 100 µM in the assay on NCI-H23 lung; above 100 µM in the assay with HL-60(TB) leukemia; above 100 µM in the assay on NCI-H522 lung; above 100 µM with OVCAR-8 ovarian; above 100 µM with MCF7 breast. Moreover, the TGI in the assay with UACC-257 melanoma was above 100 µM; in the assay on BT-549 breast, above 100 µM; with K-562 leukemia it was above 100 µM; in the assay with KM12 colon, above 100 µM; in the assay on TK-10 renal, above 100 µM; in the assay with UO-31 renal it was 33.4 µM. The TGI in the assay on NCI-H460 lung and in the assay on MOLT-4 leukemia was above 100 µM throughout.
`C[n+]1c(-c2ccc(/C=N/NC(=O)C(=O)N/N=C/c3ccc(-c4cn5ccccc5[n+]4C)cc3)cc2)cn2ccccc21`: the TGI in the assay with IGROV1 ovarian, with NCI-H23 lung, in the assay on HL-60(TB) leukemia, in the assay on NCI-H522 lung, in the assay on OVCAR-8 ovarian and in the assay with MCF7 breast was above 100 µM each time. The TGI with UACC-257 melanoma, in the assay on BT-549 breast, with K-562 leukemia, in the assay with KM12 colon, with TK-10 renal and in the assay with UO-31 renal was above 100 µM throughout. Also, the TGI in the assay with NCI-H460 lung and in the assay with MOLT-4 leukemia was above 100 µM in each case.
For `CC[C@@]12CCC(=S)N(CCSc3ccccc3)[C@@H]1c1c(n(S(=O)(=O)c3ccc(OC)cc3)c3ccccc13)CC2`, the TGI with IGROV1 ovarian, with NCI-H23 lung, in the assay on HL-60(TB) leukemia, in the assay on NCI-H522 lung, in the assay on OVCAR-8 ovarian and with MCF7 breast was above 100 µM throughout. The TGI in the assay with UACC-257 melanoma, in the assay on BT-549 breast, in the assay on K-562 leukemia, in the assay with KM12 colon, in the assay on TK-10 renal and in the assay on UO-31 renal was above 100 µM each time. For the same compound, the TGI in the assay on NCI-H460 lung and in the assay on MOLT-4 leukemia was above 100 µM each time.
Consider `CCOC(=O)c1cn(CC)c2ccc3c(c2c1=O)S(=O)(=O)C=C3`, for which the TGI in the assay with IGROV1 ovarian, with NCI-H23 lung, in the assay with HL-60(TB) leukemia, in the assay with NCI-H522 lung, in the assay with OVCAR-8 ovarian and with MCF7 breast was above 100 µM in each case. Also, the TGI in the assay on UACC-257 melanoma, in the assay with BT-549 breast, in the assay on K-562 leukemia, with KM12 colon, in the assay on TK-10 renal and with UO-31 renal was above 100 µM throughout. The TGI with NCI-H460 lung and with MOLT-4 leukemia was above 100 µM throughout.
As to `CC(NNC(=O)c1ccncc1)c1ccc(Cl)cc1Cl` (configuration not stated), the TGI in the assay on IGROV1 ovarian, in the assay on NCI-H23 lung, in the assay with HL-60(TB) leukemia, with NCI-H522 lung, in the assay with OVCAR-8 ovarian and in the assay with MCF7 breast was above 100 µM throughout. The TGI in the assay on UACC-257 melanoma, with BT-549 breast, in the assay on K-562 leukemia, in the assay on KM12 colon, in the assay with TK-10 renal and with UO-31 renal was above 100 µM throughout. The TGI in the assay on NCI-H460 lung and with MOLT-4 leukemia was above 100 µM in each case.
As for `COc1ccc(N=Nc2c(N)nn3c(SC)c(C#N)c(N)nc23)cc1`, the TGI in the assay with IGROV1 ovarian came out at 4.19 µM; with NCI-H23 lung, 21.1 µM; in the assay on HL-60(TB) leukemia, 6.07 µM; in the assay on NCI-H522 lung, 36.8 µM; in the assay on OVCAR-8 ovarian, 11.7 µM; with MCF7 breast, 7.97 µM. In addition, the TGI with UACC-257 melanoma was found to be 20.8 µM; with BT-549 breast, 49.6 µM; in the assay on K-562 leukemia, 4.65 µM; with KM12 colon it was 30.2 µM; in the assay on TK-10 renal, 33.6 µM; with UO-31 renal, 25.4 µM. For the same compound, the TGI in the assay on NCI-H460 lung came to 34.7 µM; in the assay with MOLT-4 leukemia it was 7.53 µM.
Regarding `O=C1C=C/C(=C/[C@H]2SSC=C[C@]23C=CC(=O)C3)C1`, the TGI is 48 µM with IGROV1 ovarian; 44.1 µM with NCI-H23 lung; 15.1 µM in the assay with HL-60(TB) leukemia; 27.7 µM with NCI-H522 lung; above 81 µM in the assay on OVCAR-8 ovarian; above 100 µM in the assay on MCF7 breast. Further, the TGI in the assay with UACC-257 melanoma was 99.8 µM; in the assay with BT-549 breast it was 46.8 µM; in the assay with K-562 leukemia, above 100 µM; with KM12 colon, 46.6 µM; with TK-10 renal, above 64.7 µM; in the assay with UO-31 renal it was 32.5 µM. The TGI in the assay with NCI-H460 lung was above 94.3 µM; in the assay with MOLT-4 leukemia it was 7.16 µM.

The values are drawn from PubChem BioAssay (NCI).
